Results from patent US12653800B2, “Small molecule inhibitors of TLR2 signaling” (University of Maryland, Baltimore, priority 2015, dated 2026).

Experiments:
Solubility in water = format: physicochemical; settings: compared with C29
TNF-α-induced signaling = assay: hTNF-α-induced IL-8 mRNA in HEK-TLR2 stable transfectants; format: cell-based, human; settings: C29 10 μM or 50 μM, hTNF-α 300 ng/mL 1 hr
mTLR2/6 = biological target: T1, mTLR2/6 (Mus musculus, UniProt Q9QUN7); assay: NF-κβ (ELAM)-luciferase reporter assay in HEK293T cells transfected with murine TLR2 and TLR6, P2C; format: cell-based; settings: HEK293T transfected with murine TLR2 and TLR6, C29 50 μM, P2C 50 ng/mL 5 hrs
T1 construct: expressed in transfected cells; host or cells: HEK293T, transient transfection; plasmids from Dr. Vladimir Toshchakov
Protocol: FIG. 9. C29 is species-specific and blocks human TLR2/6 signaling, but not murine TLR2/6 signaling. (A-D) HEK293T cells were transiently transfected with reporter constructs for ELAM-luciferase, Renilla-luciferase, and pcDNA3.1 in combination with/without pcDNA3-YFP-hTLR2, pFLAG-CMV1-hTLR1, pcDNA3-CFP-hTLR6, pcDNA3.1-mTLR2-CFP, pcDNA3.1-mTLR1-YFP, or pcDNA3.1-mTLR6-CFP. Cells were pretreated for 1 hr with media, vehicle (65 μM NaOH), or C29 (50 μM) and then treated with P3C or P2C (50 ng/mL) for 5 hrs in the presence of media, vehicle, or C29. Lysates were prepared and the dual-luciferase assay performed. Panels A and B represent the mean±SEM from 3 independent experiments and panels C and D represent the mean±SEM from 2 independent experiments each carried out in duplicate (*, p≤0.05; **, p≤0.01).
HEK293T cells were cultured and plated overnight in 12-well tissue culture plates (2×10^5 cells/well). Transfection mixtures consisted of pcDNA3-YFP-hTLR2 or pcDNA3.1 control vector (1 μg/well each), pELAM (NF-κB)-luciferase (0.2 μg/well), and pRL-TK-Renilla luciferase (0.05 μg/well). […] Cells were lysed in a passive lysis buffer (Promega, Madison, WI) and firefly luciferase and Renilla luciferase activities were measured using the dual luciferase reporter assay system (Promega, Madison, WI). […]

[1] = tested on: MAPK and NF-κβ activation; assay: Western analysis of MAPK and NF-κβ activation in murine peritoneal macrophages; format: cell-based; settings: C29 50 μM, P3C 50 ng/mL
Protocol: FIG. 2. C29 inhibits ligand-induced interaction of TLR2 with MyD88 and blocks MAPK and NF-κβ activation. (A) THP-1 cells were cultured in the presence of PMA (20 ng/mL) for 24 hrs and washed twice in media. THP-1 human monocytes were pretreated with media, vehicle (195 μM NaOH), or C29 (150 μM) for 1 hr and treated with P3C (50 ng/mL) in the presence of media, vehicle, or C29 for 15 or 30 min. Co-immunoprecipitation (IP) was carried out using anti-MyD88 antibody and Western analysis (IB) using whole cell lysates. (B) Densitometry analysis (mean±SEM) of 3 independent experiments as shown in (A). (C) Murine peritoneal macrophages were pretreated for 1 hr with media, vehicle (65 μM NaOH), or C29 (50 μM) and treated with P3C (50 ng/mL) for 5-30 min in the presence of media, vehicle, or C29. IB was performed using whole cell lysates and antibodies directed against the signaling intermediates indicated. β-actin was probed as a loading protein. Panel A is representative of 3 independent experiments and panel B is the mean±SEM from 3 independent experiments (*, p≤0.05). Panel B is representative of 2 independent experiments.
Cells were treated and washed once with 1×PBS and lysed using buffer containing 20 mM HEPES (pH 7.4), 150 mM NaCl, 1 mM EDTA, 1 mM EGTA (pH 8.0), 50 mM NaF, 0.5% Triton X-100, 1 mM Na3VO4, 1 mM DTT, 1 mM PMSF, and protease inhibitor (Roche Applied Science, Indianapolis, IN). Cells were harvested and protein was quantified using BCA Protein assay reagents (Thermo Scientific/Pierce, Rockford, IL). Whole cell lysates (500 μg/500 μL) were precleared using 10 μL of pre-washed Protein G Agarose (Roche Applied Science, Indianapolis, IN) for 2 hours at 4° C. with rotation. Precleared samples were incubated with the respective antibody and rotated overnight at 4° C. Pre-washed Protein G (40 μL) was added to each sample and rotated for 4 h at 4° C. Beads were washed three times in lysis buffer (without protease inhibitor) and finally in complete lysis buffer. Beads were resuspended in 2× Laemmli Sample Buffer and boiled for 10 min. […]

TLR2/1 = TLR2/1 (Homo sapiens, UniProt O60603); assay: IL-1β mRNA in THP-1 cells stimulated with TLR2/1 agonists (P3C, S. aureus LTA); format: cell-based; set-up: expressed in transfected cells; settings: C29 50, 100 or 200 μM
TLR2/6 = TLR2/6 (Homo sapiens, UniProt O60603); assay: IL-1β mRNA in THP-1 cells stimulated with TLR2/6 agonists (P2C, zymosan); format: cell-based; set-up: expressed in transfected cells; settings: C29 50, 100 or 200 μM
Chain of TLR2/6 (O60603 21-784): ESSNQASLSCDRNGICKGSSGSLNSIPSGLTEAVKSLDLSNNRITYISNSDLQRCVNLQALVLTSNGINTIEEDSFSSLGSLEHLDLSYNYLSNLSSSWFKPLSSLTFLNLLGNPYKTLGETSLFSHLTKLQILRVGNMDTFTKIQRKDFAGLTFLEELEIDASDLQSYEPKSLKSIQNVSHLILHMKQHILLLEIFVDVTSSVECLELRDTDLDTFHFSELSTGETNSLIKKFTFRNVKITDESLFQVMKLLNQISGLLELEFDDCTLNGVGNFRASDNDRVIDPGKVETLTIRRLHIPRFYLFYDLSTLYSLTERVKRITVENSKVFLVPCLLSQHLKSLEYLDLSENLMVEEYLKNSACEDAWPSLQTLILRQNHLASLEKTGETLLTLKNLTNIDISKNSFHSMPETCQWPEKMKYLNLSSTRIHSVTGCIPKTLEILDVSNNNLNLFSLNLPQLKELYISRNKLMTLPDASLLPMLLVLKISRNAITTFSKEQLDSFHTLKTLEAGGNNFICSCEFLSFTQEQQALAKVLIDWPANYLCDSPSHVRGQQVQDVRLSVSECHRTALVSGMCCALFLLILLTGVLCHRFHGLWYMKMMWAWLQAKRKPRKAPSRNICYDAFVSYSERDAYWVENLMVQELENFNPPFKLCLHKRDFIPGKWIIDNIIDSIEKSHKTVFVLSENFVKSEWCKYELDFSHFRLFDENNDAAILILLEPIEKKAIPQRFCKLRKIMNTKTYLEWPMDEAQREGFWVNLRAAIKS

Chain of TLR2/1 (O60603 21-784): as above
T1 sequence (Q9QUN7 25-784): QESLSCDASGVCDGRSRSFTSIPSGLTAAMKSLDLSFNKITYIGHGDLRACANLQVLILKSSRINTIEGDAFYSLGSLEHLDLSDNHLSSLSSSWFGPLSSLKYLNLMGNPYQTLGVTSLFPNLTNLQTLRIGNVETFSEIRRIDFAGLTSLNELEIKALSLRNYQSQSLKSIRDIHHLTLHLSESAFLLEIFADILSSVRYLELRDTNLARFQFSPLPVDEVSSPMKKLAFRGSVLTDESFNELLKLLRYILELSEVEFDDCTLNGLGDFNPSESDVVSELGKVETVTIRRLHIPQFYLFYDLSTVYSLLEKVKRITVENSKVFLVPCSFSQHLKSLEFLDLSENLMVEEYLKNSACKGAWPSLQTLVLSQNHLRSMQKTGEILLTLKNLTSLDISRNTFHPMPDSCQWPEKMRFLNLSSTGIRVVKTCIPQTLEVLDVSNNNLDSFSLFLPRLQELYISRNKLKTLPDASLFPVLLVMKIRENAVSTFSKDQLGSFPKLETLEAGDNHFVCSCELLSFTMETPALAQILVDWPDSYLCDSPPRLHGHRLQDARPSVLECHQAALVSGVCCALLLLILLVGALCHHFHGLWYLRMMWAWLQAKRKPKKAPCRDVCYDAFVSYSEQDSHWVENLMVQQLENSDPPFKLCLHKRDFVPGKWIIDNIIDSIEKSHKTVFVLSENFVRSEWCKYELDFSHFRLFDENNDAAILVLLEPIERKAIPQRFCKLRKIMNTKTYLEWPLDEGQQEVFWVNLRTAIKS

Row | Structure (SMILES) | solubility in water (Solubility in water) | TNF-α-induced signaling (IL-8 mRNA) (TNF-α-induced signaling) | mTLR2/6-induced NF-κβ-luciferase activity (mTLR2/6) | P3C-induced NF-κβ activation ([1]; 5 to 30 min) | P3C-induced degradation of IκBα ([1]; 15 and 30 min) | P3C-induced MAPK activation ([1]; 30 min) | P3C-induced IL-1β gene expression (TLR2/1; P3C 50 ng/mL, 1 h and 4 h) | LTA SA-induced IL-1β mRNA (TLR2/1; S. aureus LTA 1 μg/mL 4 hrs) | P2C-induced IL-1β gene expression (TLR2/6; P2C 50 ng/mL, 1 h and 4 h) | zymosan-induced IL-1β mRNA (TLR2/6; zymosan 10 μg/mL 4 hrs)
1 | COc1cccc(C=O)c1O [Compound C29L, ortho-vanillin] | more soluble in water than C29 | – | – | – | – | – | – | – | – | –
2 | COc1cccc(/C=N/c2cccc(C(=O)O)c2C)c1O [Compound C29] | – | no effect | but not mTLR2/6-induced | reduced NF-κβ activation | prevented P3C-induced degradation of IκBα | blocked robust MAPK activation | inhibited P3C- and P2C-induced IL-1β gene expression significantly | blocked zymosan- and LTA SA-induced IL-1β mRNA dose-dependently | inhibited P3C- and P2C-induced IL-1β gene expression significantly | blocked zymosan- and LTA SA-induced IL-1β mRNA dose-dependently
